Calls of active or inactive are those of the source. The calls are words filed in the database; no cut-off is given here.
Tests used:
[1] = test system: HL-60; assay: Antiproliferative activity against human HL60 cells assessed as inhibition of cell proliferation incubated for 72 hrs by MTT assay; assay type: functional, cell-based; settings: HL-60, 72 h
[2] = test system: SEM cells; assay: Antiproliferative activity against human SEM cells assessed as inhibition of cell proliferation incubated for 72 hrs by MTT assay; assay type: functional, cell-based
[3] = test system: HT-29; assay: cells; settings: Homo sapiens, HT-29, 72 h
Description: Antiproliferative activity against human HT-29 cells assessed as inhibition of cell proliferation incubated for 72 hrs by MTT assay

[4] = test system: MCF7; assay: cells; settings: Homo sapiens, MCF7, 72 h
Description: Antiproliferative activity against human MCF7 cells assessed as inhibition of cell proliferation incubated for 72 hrs by MTT assay

[5] = test system: MDA-MB-231; assay: Antiproliferative activity against human MDA-MB-231 cells assessed as inhibition of cell proliferation incubated for 72 hrs by MTT assay; assay type: functional, cell-based; settings: MDA-MB-231, 72 h
[6] = molecular target: Tubulin (Bos taurus, UniProt Q6B856+Q862L2+Q862F3); assay: Inhibition of bovine brain tubulin assembly using GTP as substrate incubated for 20 mins by spectrophotometric method
[7] = molecular target: T1, Tubulin (Bos taurus) (UniProt Q6B856+Q862L2+Q862F3); assay: Displacement of [3H]-colchicine from bovine brain tubulin at 5 uM incubated for 1 hr by relative to control
[8] = test system: HeLa; assay: cells; settings: Homo sapiens, 72 h
Description: Antiproliferative activity against human HeLa cells assessed as inhibition of cell proliferation incubated for 72 hrs by MTT assay

[9] = test system: MDA-MB-231; assay: Induction of mitochondrial membrane depolarization in human MDA-MB-231 cells at 50 to 100 nM incubated for 24 to 48 hrs by JC1 staining based flow cytometric method; assay type: functional, cell-based
[10] = test system: MDA-MB-231; assay: Induction of cell cycle arrest in human MDA-MB-231 cells assessed as increase in accumulation of cells at G2/M phase at 100 nM incubated for 24 hrs by PI staining based flow cytometric analysis; assay type: functional
[11] = molecular target: T1, Tubulin (Bos taurus); assay: Displacement of [3H]-colchicine from bovine brain tubulin at 0.5 uM incubated for 1 hr by relative to control
[12] = Cytotoxicity against human astrocytes assessed as reduction in cell viability incubated for 72 hrs by MTT assay; assay type: cell-based, Astrocyte
[13] = Cytotoxicity against human quiescent PBL assessed as reduction in cell viability incubated for 72 hrs by MTT assay; assay type: cell-based
[14] = test system: MDA-MB-231; assay: Induction of ROS generation in human MDA-MB-231 cells at 50 to 100 nM incubated for 24 to 48 hrs by H2-DCFDA staining based flow cytometric method; assay type: functional, cell-based
[15] = test system: MDA-MB-231; assay: Induction of apoptosis in human MDA-MB-231 cells assessed as reduction in Mcl1 protein expression at 50 to 100 nM incubated for 48 hrs by Western blot analysis; assay type: functional, cell-based
[16] = test system: MDA-MB-231; assay: Induction of cell cycle arrest in human MDA-MB-231 cells assessed as effect on cyclin B protein expression at 50 to 100 nM incubated for 24 to 48 hrs by western blot analysis; assay type: functional, cell-based
[17] = test system: MDA-MB-231; assay: Induction of apoptosis in human MDA-MB-231 cells assessed as reduction in XIAP protein expression at 50 to 100 nM incubated for 24 to 48 hrs by Western blot analysis; assay type: functional, cell-based
[18] = Cytotoxicity against PHA-stimulated human PBL assessed as reduction in cell viability incubated for 72 hrs by MTT assay; assay type: cell-based
[19] = test system: MDA-MB-231; assay: Induction of apoptosis in human MDA-MB-231 cells at 50 nM incubated for 24 to 48 hrs by annexin V-FITC/propidium iodide staining-based flow cytometry analysis; assay type: functional, cell-based
[20] = test system: CCRF-CEM; assay: Antiproliferative activity against human CEM cells assessed as inhibition of cell growth incubated for 72 hrs by MTT assay; assay type: functional
[21] = test system: MDA-MB-231; assay: Induction of cell cycle arrest in human MDA-MB-231 cells assessed as increase in p21 protein expression level at 50 to 100 nM incubated for 24 to 48 hrs by western blot analysis; assay type: functional, cell-based
[22] = test system: MDA-MB-231; assay: Induction of cell cycle arrest in human MDA-MB-231 cells assessed as reduction in accumulation of cells at S phase at 10 to 100 nM incubated for 24 hrs by PI staining based flow cytometric analysis; assay type: functional
[23] = test system: MDA-MB-231; assay: Induction of apoptosis in human MDA-MB-231 cells assessed as activation of PARP cleavage at 50 to 100 nM incubated for 48 hrs by Western blot analysis; assay type: functional, cell-based
[24] = test system: MDA-MB-231; assay: Induction of cell cycle arrest in human MDA-MB-231 cells assessed as reduction in accumulation of cells at G1 phase at 10 to 100 nM incubated for 24 hrs by PI staining based flow cytometric analysis; assay type: functional
[25] = Antiproliferative activity against human CEM/VBL100 cells overexpressing P-gp assessed as inhibition of cell growth incubated for 72 hrs by MTT assay; assay type: functional; settings: CEM/VBL100, 72 h

Row | SMILES | IC50 [1] [nM] | IC50 [2] [nM] | IC50 [3] [nM] | IC50 [4] [nM] | IC50 [5] [nM] | IC50 [6] [nM] | inhibition [7] [%] | IC50 [8] [nM] | inhibition [11] [%] | further results
1 | COc1cc(-c2n[nH]cc2-c2ccc(C)cc2)cc(OC)c1OC | 11.9 | 2.6 | 28.2 | 127 | 10.6 | 370 | 88 | 11.1 | – | –
2 | COc1cc(-c2c[nH]nc2-c2ccc(C)cc2)cc(OC)c1OC | 31.4 | 14.7 | 44.4 | 700 | 262 | 570 | 86 | 25.2 | – | –
3 | COc1ccc(-c2c[nH]nc2-c2cc(OC)c(OC)c(OC)c2)cc1Cl | 17 | 2.4 | 0.2 | 1390 | 21.5 | 520 | 85 | 1.4 | – | –
4 | CCOc1ccc(-c2c[nH]nc2-c2cc(OC)c(OC)c(OC)c2)cc1 | 3.2 | 0.2 | 0.3 | 1.5 | 4.5 | 360 | 95 | 0.05 | 69 | Activity [9]: Active; Activity [10]: Active; GI50 at 72 h [12]: > 10000 nM; GI50 at 72 h [13]: 8700 nM; Activity [14]: Active; Activity [15]: Active; Activity [16]: inactive; Activity [17]: Active; GI50 at 72 h [18]: > 10000 nM; Activity [19]: Active; GI50 [20]: 0.4 nM; Activity [21]: Active; Activity [22]: Active; Activity [23]: Active; Activity [24]: Active; GI50 [25]: 1.9 nM
5 | COc1ccc(-c2c[nH]nc2-c2cc(OC)c(OC)c(OC)c2)cc1F | 5.1 | 2.7 | 15.8 | 805 | 327 | 420 | 93 | 7.3 | 55 | –
6 | COc1cc(-c2n[nH]cc2-c2cc(C)c(OC)c(C)c2)cc(OC)c1OC | > 10000 | 3340 | > 10000 | > 10000 | > 10000 | – | – | > 10000 | – | –
7 | CCOc1ccc(-c2c[nH]nc2-c2cc(OC)c(OC)c(OC)c2)cc1Cl | 1.5 | 1.4 | 4.2 | 4.5 | 6.9 | 390 | 90 | 1.6 | 62 | –
8 | COc1cc(-c2n[nH]cc2-c2ccc(C(F)(F)F)cc2)cc(OC)c1OC | 179 | 187 | 67.4 | 4380 | 523 | – | – | 227 | – | –
9 | COc1ccc(-c2n[nH]cc2-c2cc(OC)c(OC)c(OC)c2)cc1 | 2.1 | 0.4 | 0.8 | 2.6 | 0.9 | 340 | 93 | 1.9 | 79 | –
10 | COc1ccc(-c2c[nH]nc2-c2cc(OC)c(OC)c(OC)c2)cc1 | 4.4 | 1 | 10.5 | 16.6 | 8.6 | 370 | 86 | 6 | – | –
11 | COc1ccc(/C=C\c2cc(OC)c(OC)c(OC)c2)cc1O [COMBRETASTATIN A4] | – | 5.1 | – | – | 4.5 | – | – | – | – | –

— ChEMBL document CHEMBL4406823 (Eur J Med Chem, 2019)
